# Test results reported in US20130053385A1, “METHOD OF COMBATING AND CONTROLLING PESTS” (SYNGENTA LIMITED, priority 2009, published 2013).
# Read-outs that look alike come from different tables or passages of the source.
# Tests used:
# Type in all cases: in vivo
# [1] = tested on: Tetranychus urticae (Two-Spotted Spider Mite); assay: Activity against Tetranychus urticae, mixed population, feeding/residual contact activity, preventive (bean leaf discs, Example B4); conditions: foliar, 192 h, read-out: activity (egg, larval and adult mortality)
# Source text: Activity Against Tetranychus urticae (Two-Spotted Spider Mite)
# (§1) (mixed population, feeding/residual contact activity, preventive)
# Bean leaf discs on agar in 24-well microtiter plates are sprayed with test solutions. After drying, the leaf discs are infested with mite populations of mixed ages. 8 days later, discs are checked for egg mortality, larval mortality, and adult mortality.
# [2] = tested on: Thrips tabaci (Onion Thrips); assay: Activity against Thrips tabaci, mixed population, feeding/residual contact activity, preventive (sunflower leaf discs, Example B3); conditions: foliar, 144 h, sprayed sunflower leaf discs, 6 days incubation, mixed-age thrips
# Protocol: Activity Against Thrips tabaci (Onion Thrips)
# as §1
# Sunflower leaf discs are placed on agar in a 24-well microtiter plate and sprayed with test solutions. After drying, the leaf discs are infested with a thrips population of mixed ages. After an incubation period of 6 days, samples are checked for mortality and special effects (e.g. phytotoxicity).
# [3] = tested on: Myzus persicae (Green Peach Aphid); assay: Activity against Myzus persicae, mixed population, feeding/residual contact activity, preventive (sunflower leaf discs, Example B1); conditions: foliar, 144 h, read-out: activity (mortality)
# Protocol: Activity Against Myzus persicae (Green Peach Aphid)
# as §1
# Sunflower leaf discs are placed on agar in a 24-well microtiter plate and sprayed with test solutions. After drying, the leaf discs are infested with an aphid population of mixed ages. After an incubation period of 6 days, samples are checked for mortality and special effects (e.g. phytotoxicity).
# [4] = tested on: Plutella xylostella (Diamond Back Moth); assay: Activity against Plutella xylostella, larvicide, feeding/residual contact activity, preventive (artificial diet MTP, Example B5); conditions: 120 h, read-out: activity (larval mortality, antifeedant, growth regulation)
# Protocol: Activity Against Plutella xylostella (Diamond Back Moth)
# (larvicide, feeding/residual contact activity, preventive)
# 24-well microtiter plate (MTP) with artificial diet is treated with test solutions by pipetting. After drying, the MTP's are infested with larvae (L2)(10-15 per well). After an incubation period of 5 days, samples are checked for larval mortality, antifeedant and growth regulation.
# [5] = 400 ppm, sprayed bean leaf discs, 8 days, mixed-age mites
# [6] = 400 ppm, sprayed sunflower leaf discs, 6 days incubation, mixed-age aphids
# [7] = 400 ppm, artificial diet, L2 larvae, 5 days incubation
SMILES,"mortality at 400 ppm [1, 5] [%]",mortality at 400 ppm [2] [%],"mortality at 400 ppm [3, 6] [%]",further results
CON1CCC(CC2CC(OC(=O)OC(C)C)=C(c3c(C)cc(C)cc3C)C2=O)CC1 (centres unmarked) [Compound P56],> 80,> 80,–,–
Cc1cc(C)c(C2=C(OC(=O)C3CC3)CC(CC3CCN(C(=O)C4CC4)C3)C2=O)c(C)c1 (centres unmarked) [Compound P57],> 80,–,> 80,–
CON1CCC(CC2CC(=O)C(c3c(C)cc(C)cc3C)C2=O)CC1 (centres unmarked) [Compound T23],–,> 80,> 80,–
CON1CCC(CC2CC(OC(C)=O)=C(c3c(C)cc(C)cc3C)C2=O)CC1 (centres unmarked) [Compound P50],–,> 80,> 80,–
CC(=O)N1CCC(/C=C2\CC(=O)C(c3c(C)cc(C)cc3C)C2=O)CC1 (centres unmarked) [Compound T15],–,–,> 80,–
Cc1cc(C)c(C2C(=O)CC(CC3CCN(C(=O)c4cc(C)nn4C)CC3)C2=O)c(C)c1 (centres unmarked) [Compound T121],–,–,–,"mortality at 400 ppm [4, 7]: > 80%"
Cc1cc(C)c(C2=C(OC(=O)C3CCCCC3)CC(CC3CCOC3)C2=O)c(C)c1 (centres unmarked) [Compound P15],–,> 80,–,–
Cc1cc(-c2ccc(Cl)cc2F)cc(C)c1C1C(=O)C/C(=C\C2CCOCC2)C1=O (centres unmarked) [Compound T132],> 80,–,> 80,–
CCS(=O)(=O)N1CCC(CC2CC(=O)C(c3c(C)cc(C)cc3C)C2=O)CC1 (centres unmarked) [Compound T95],> 80,–,> 80,–
Cc1cc(C)c(C2C(=O)C(C)C(CC3CCOC3)C2=O)c(C)c1 (centres unmarked) [Compound T29],–,–,> 80,–
Cc1cc(F)cc(C)c1C1C(=O)CC(CC2CCOC2)C1=O (centres unmarked) [Compound T171],> 80,–,> 80,–
Cc1cc(C)c(C2C(=O)CC(CC3CCOCC3)C2=O)c(C)c1 (centres unmarked) [Compound T4],–,> 80,–,"mortality at 400 ppm [4, 7]: > 80%"
Cc1cc(C)c(C2=C(OC(=O)OCC(C)(C)C)CC(CC3CCOC3)C2=O)c(C)c1 (centres unmarked) [Compound P24],–,> 80,–,–
COc1ccc(C(=O)OC2=C(c3c(C)cc(C)cc3C)C(=O)C(CC3CCOC3)C2)cc1 (centres unmarked) [Compound P18],> 80,> 80,–,–
Cc1cc(C)c(C2C(=O)C/C(=C\C3CCN(S(C)(=O)=O)C3)C2=O)c(C)c1 (centres unmarked) [Compound T31],> 80,–,–,"mortality at 400 ppm [4, 7]: > 80%"
Cc1cc(C)c(C2C(=O)CC(CC3CCCOC3)C2=O)c(C)c1 (centres unmarked) [Compound T16],–,> 80,> 80,"mortality at 400 ppm [4, 7]: > 80%"
CON1CCC(CC2CC(OC(=O)c3ccccc3)=C(c3c(C)cc(C)cc3C)C2=O)CC1 (centres unmarked) [Compound P55],> 80,> 80,–,–
COC(=O)N1CCC(CC2CC(=O)C(c3c(C)cc(C)cc3C)C2=O)CC1 (centres unmarked) [Compound T98],> 80,–,–,mortality at 400 ppm [3]: > 80%
CCCCCCC(=O)OC1=C(c2c(C)cc(C)cc2C)C(=O)C(CC2CCOC2)C1 (centres unmarked) [Compound P16],–,–,> 80,–
CC(=O)N1CCC(CC2CC(=O)C(c3c(C)cc(C)cc3C)C2=O)CC1 (centres unmarked) [Compound T24],–,–,> 80,–

SMILES,"mortality at 400 ppm [1, 5] [%]",mortality at 400 ppm [2] [%],"mortality at 400 ppm [3, 6] [%]",further results
Cc1cc(C)c(C2=C(OC(=O)OC(C)C)CC(CC3CCOCC3)C2=O)c(C)c1 (centres unmarked) [Compound P43],–,> 80,–,–
Cc1cc(C)c(C2=C(OC(=O)Oc3ccccc3)CC(CC3CCOC3)C2=O)c(C)c1 (centres unmarked) [Compound P26],–,> 80,–,–
Cc1cc(C)c(C2=C(OC(=O)OCC(C)C)CC(CC3CCOC3)C2=O)c(C)c1 (centres unmarked) [Compound P23],> 80,> 80,–,–
Cc1cc(Br)cc(C)c1C1C(=O)C/C(=C\C2CCOCC2)C1=O (centres unmarked) [Compound T45],> 80,–,> 80,–
Cc1cc(C)c(C2=C(OC(=O)C3CC3)CC(CC3CCOC3)C2=O)c(C)c1 (centres unmarked) [Compound P14],–,–,> 80,–
CCCOC(=O)OC1=C(c2c(C)cc(C)cc2C)C(=O)C(CC2CCOC2)C1 (centres unmarked) [Compound P20],–,> 80,–,"mortality at 400 ppm [4, 7]: > 80%"
Cc1cc(-c2ccccc2)cc(C)c1C1C(=O)CC(CC2CCOCC2)C1=O (centres unmarked) [Compound T67],> 80,–,–,–
Cc1cc(C)c(C2C(=O)CC(CC3CCN(C(=O)Oc4ccccc4)CC3)C2=O)c(C)c1 (centres unmarked) [Compound T68],–,–,–,mortality at 400 ppm [1]: > 80%; mortality at 400 ppm [3]: > 80%
Cc1cc(C)c(C2C(=O)CC(Cc3ccccc3)(CC3CCOC3)C2=O)c(C)c1 (centres unmarked) [Compound T150],–,–,> 80,–
Cc1cc(C)c(C2=C(OC(=O)C(C)(C)C)CC(CC3CCOC3)C2=O)c(C)c1 (centres unmarked) [Compound P7],> 80,> 80,> 80,"mortality at 400 ppm [4, 7]: > 80%"
Cc1cc(C)c(C2C(=O)CC(CC3CCN(C(=O)OC(C)(C)C)CC3)C2=O)c(C)c1 (centres unmarked) [Compound T55],> 80,–,–,–
Cc1cc(Br)cc(C)c1C1=C(OC(=O)C(C)(C)C)CC(CC2CCOCC2)C1=O (centres unmarked) [Compound P66],–,–,> 80,–
Cc1cc(C)c(C2=C(OC(=O)C(C)(C)C)CC(CC3CCOCC3)C2=O)c(C)c1 (centres unmarked) [Compound P5],–,–,–,"mortality at 400 ppm [4, 7]: > 80%"
Cc1cc(C)c(C2C(=O)CC(CC3CCOC3)C2=O)c(C)c1 (centres unmarked) [Compound T5],–,> 80,> 80,"mortality at 400 ppm [4, 7]: > 80%"
Cc1cc(C)c(C2=C(OC(=O)c3ccccc3)CC(CC3CCOC3)C2=O)c(C)c1 (centres unmarked) [Compound P17],> 80,> 80,> 80,–
Cc1cc(C2CC2)cc(C)c1C1C(=O)CC(CC2CCOCC2)C1=O (centres unmarked) [Compound T173],> 80,–,–,–
Cc1cc(-c2ccc(OC(F)(F)F)cc2)cc(C)c1C1C(=O)CC(CC2CCOCC2)C1=O (centres unmarked) [Compound T137],> 80,–,–,–
Cc1cc(-c2ccc(F)cc2)cc(C)c1C1C(=O)CC(CC2CCOC2)C1=O (centres unmarked) [Compound T158],> 80,–,–,–
CCSC(=O)OC1=C(c2c(C)cc(C)cc2C)C(=O)C(CC2CCOC2)C1 (centres unmarked) [Compound P30],–,> 80,–,–
Cc1cc(C)c(C2C(=O)CC(CC3C[C@@H]4O[C@H]3[C@@H]3C(=O)N(C)C(=O)[C@@H]34)C2=O)c(C)c1 (some centres unmarked) [Compound T128],> 80,–,–,–

SMILES,"mortality at 400 ppm [1, 5] [%]",mortality at 400 ppm [2] [%],"mortality at 400 ppm [3, 6] [%]",further results
CON1CCC(CC2CC(OC(=O)C(C)(C)C)=C(c3c(C)cc(C)cc3C)C2=O)CC1 (centres unmarked) [Compound P51],> 80,–,–,–
Cc1cc(C)c(C2C(=O)CC(CC3CCN(C(=O)C(F)(F)F)CC3)C2=O)c(C)c1 (centres unmarked) [Compound T163],> 80,–,–,–
Cc1cc(C)c(C2=C(OC(=O)C(C)(C)C)CC(CC3CCCOC3)C2=O)c(C)c1 (centres unmarked) [Compound P37],> 80,–,–,"mortality at 400 ppm [4, 7]: > 80%"
Cc1cc(-c2ccc(C(F)(F)F)cc2)cc(C)c1C1C(=O)CC(CC2CCOCC2)C1=O (centres unmarked) [Compound T136],> 80,–,–,–
Cc1cc(C)c(C2C(=O)CC(CC3CCN(C(=O)c4ccccc4C)CC3)C2=O)c(C)c1 (centres unmarked) [Compound T72],> 80,–,–,–
Cc1cc(C)c(C2C(=O)C/C(=C\C3CCOCC3)C2=O)c(C)c1 (centres unmarked) [Compound T8],> 80,> 80,> 80,"mortality at 400 ppm [4, 7]: > 80%"
Cc1cc(C)c(C2C(=O)CC(CC3C[C@@H]4O[C@H]3[C@@H]3C(=O)NC(=O)[C@@H]34)C2=O)c(C)c1 (some centres unmarked) [Compound T127],–,–,–,"mortality at 400 ppm [4, 7]: > 80%"
Cc1cc(C)c(C2=C(OC(=O)c3c(C)noc3C)CC(CC3CCN(C(=O)c4c(C)noc4C)C3)C2=O)c(C)c1 (centres unmarked) [Compound P63],> 80,–,–,–
Cc1cc(C)c(C2C(=O)C/C(=C\C3CCOC(C)(C)C3)C2=O)c(C)c1 (centres unmarked) [Compound T37],> 80,–,> 80,–
CCc1cc(C)cc(C)c1C1C(=O)C/C(=C\C2CCOC2)C1=O (centres unmarked) [Compound T59],–,–,> 80,–
Cc1cc(C)c(C2C(=O)CC(CCC3CCOCC3)C2=O)c(C)c1 (centres unmarked) [Compound T21],> 80,–,–,–
Cc1cc(C)c(C2=C(OC(=O)C(C)C)CC(CC3CCOC3)C2=O)c(C)c1 (centres unmarked) [Compound P13],–,> 80,–,–
Cc1cc(Br)cc(C)c1C1C(=O)CC(CC2CCOCC2)C1=O (centres unmarked) [Compound T138],> 80,–,> 80,–
CCSC(=O)N1CCC(/C=C2\CC(=O)C(c3c(C)cc(C)cc3C)C2=O)C1 (centres unmarked) [Compound T33],–,–,–,mortality at 400 ppm [4]: > 80%
Cc1ccc(C)c(C2C(=O)CC(CC3CCOC3)C2=O)c1 (centres unmarked) [Compound T175],> 80,–,–,–
Cc1cccc(C)c1C1C(=O)CC(CC2CCOCC2)C1=O (centres unmarked) [Compound T52],> 80,> 80,> 80,–
CCS(=O)(=O)OC1=C(c2c(C)cc(C)cc2C)C(=O)C(CC2CCOC2)C1 (centres unmarked) [Compound P27],–,> 80,–,–
Cc1cc(C)c(C2C(=O)CC(CC3CCN(C(=O)C(F)(F)C(F)F)C3)C2=O)c(C)c1 (centres unmarked) [Compound T131],> 80,–,–,–
Cc1cc(Cl)cc(C)c1C1C(=O)CC(CC2CCOCC2)C1=O (centres unmarked) [Compound T169],–,–,> 80,–
